Measured values as given in BindingDB's records for doi:10.1021/acs.jmedchem.6b01363 (Genentech, 2017).

These compounds were tested against Transcription factor p65 (Human, UniProt Q04206) (assay: Inhibition of TNF-alpha-stimulated RELA translocation from cytoplasm to nucleus in human HeLa cells preincubated for 4.5 hrs followed by TNF-alpha stimulation measured after 30 mins).
Transcription factor p65, sequence (Q04206 whole entry): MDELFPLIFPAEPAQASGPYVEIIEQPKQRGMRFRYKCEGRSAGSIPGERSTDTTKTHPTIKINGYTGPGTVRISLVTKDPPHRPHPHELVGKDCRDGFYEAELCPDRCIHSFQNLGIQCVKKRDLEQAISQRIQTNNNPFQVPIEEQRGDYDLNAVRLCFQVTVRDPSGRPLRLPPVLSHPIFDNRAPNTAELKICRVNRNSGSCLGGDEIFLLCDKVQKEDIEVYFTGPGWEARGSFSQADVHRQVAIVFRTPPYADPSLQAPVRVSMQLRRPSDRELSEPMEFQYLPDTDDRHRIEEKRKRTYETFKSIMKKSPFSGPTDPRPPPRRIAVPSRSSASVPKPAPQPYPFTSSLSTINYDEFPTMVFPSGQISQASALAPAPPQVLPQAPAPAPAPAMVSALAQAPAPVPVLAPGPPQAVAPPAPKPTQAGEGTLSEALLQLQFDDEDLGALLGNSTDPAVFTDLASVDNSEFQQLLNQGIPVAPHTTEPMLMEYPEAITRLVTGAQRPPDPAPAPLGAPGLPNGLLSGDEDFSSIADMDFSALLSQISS

IC50 [µM]	Compound
> 20	Cc1cc([C@](C)(O)C#Cc2cc3c(cc2F)OCCn2cc(C(N)=O)nc2-3)no1 [US9034866, 6]
> 20	CNC(=O)c1c(C(N)=O)nc2n1CCOc1ccc(C#C[C@@](C)(O)c3cc(C)on3)cc1-2 [US9034866, 96]
> 20	Cc1cc([C@](C)(O)C#Cc2cc3c(cc2F)C2CC(C2)n2cc(C(N)=O)nc2-3)no1 [US9034866, 129]
